This is an account of results in patent US20240165094A1, “METHODS AND COMPOSITIONS FOR TREATING MELANOMA” (INSTITUT NATIONAL DE LA SANTÉ ET DE LA RECHERCHE MÉDICALE, priority 2021, published 2024).

In one assay the test system is M238P cells. Briefly: Viability assay (crystal violet staining of attached cells), BRAFi-sensitive parental cells. It counts as cell-based, human. The conditions noted are these: 3 days.
Assay [1] has as its system M238R cells. Kind of assay: Real-time quantitative PCR gene expression in BRAFi-resistant cells. It counts as cell-based, human. The note with it: data not shown. Here is the method: (§1) Total RNA was extracted from tumors and cell samples with the miRNeasy Mini Kit (Qiagen) according to the manufacturer's instructions.
(§2) 1 μg of extracted RNA from cells was reverse transcribed into cDNA using the Multiscribe reverse transcriptase kit provided by Applied Biosystems. Primers were designed using PrimerBank or adopted from published studies. Gene expression levels were measured using Platinum SYBR Green qPCR Supermix (Fisher Scientific) and Step One thermocycler (Applied Biosystem). Results from qPCR were normalized using the reference gene RPL32 and relative gene expression was quantified with the ΔΔCt method. Heatmaps describing gene expression fold changes were prepared using MeV software. cDNAs from tumors were prepared from 100 ng of RNA using Fluidigm Reverse Transcription Master Mix (Fluidigm PN 100-647297). Following a pre-amplification step (Fluidigm® PreAmp Master Mix and DELTAgene™ Assay kits) and exonuclease I treatment, samples diluted in Eva-Green® Supermix with Low ROX were loaded with primer reaction mixes in 96.96 Dynamic Array™ IFCs. Gene expression was then assessed on a Fluidigm BioMark HD instrument. Data were analyzed with real-time PCR analysis software (Fluidigm Corporation), and presented as relative gene expression according to the ΔΔCt method. Heat maps depicting fold changes of gene expression were prepared using MeV software.

The test system of assay [2] is YUMM1.7 Braf-mutant melanoma. Briefly: Syngenic model of murine YUMM1.7 Braf-mutant melanoma: tumor growth, relapse, survival. It is filed as in vivo, mouse. An excerpt: FIG. 2. Nintedanib enhances MAPK-targeted therapy efficacy, delays tumor relapse, improves mice survival and normalizes the pro-fibrotic stromal reaction. Kaplan-Meier survival curves of mice treated with vehicle, Nintedanib, MAPK-targeted therapy (BRAFi+MEKi) or MAPK-targeted therapy plus Nintedanib. Log rank (Mantel-Cox) statistical test was used for MAPK-targeted therapy vs MAPK targeted therapy/Nintedanib. ****p<0.0001.
FIG. 4. Nintedanib, but not Pirfenidone, enhances MAPK-targeted therapy efficacy and delays tumor relapse. Mouse YUMM1.7 cells were injected s.c. into syngeneic C57BL/6 mice. When tumor volume reached 100 mm3, mice were administered vehicle, BRAFi+MEKi combination, Nintedanib, Pirfenidone or the triple combinations of BRAFi+MEKi and Nintedanib or BRAFi+MEKi and Pirfenidone. Representative median graphics show tumor growth following treatment (n=3 mice per group). Treatment: Oral gavage 3 times per week. Vemurafenib (BRAFi): 30 mg/kg; Trametinib (MEKi): 0.3 mg/kg; Nintedanib: 50 mg/kg; Pirfenidone: 100 mg/kg. Oral gavage 3 times per week.
Mouse experiments were carried out according to the Institutional Animal Care and the local ethical committee. 4×105 YUMNI1.7 cells were injected in both flanks of C57BL/6 mice. Tumors were measured with caliper and treatments were started when the tumors reached a volume of 0.1 cm3, after randomization of mice into control and test groups. Vemurafenib (30 mg/kg), Trametinib (0.3 mg/kg), and Nintedanib (50 mg/kg) were administered by oral gavage three times per week. Control mice were treated with vehicle only. Animals were sacrificed when the tumors reached a volume of 1 cm3. After animal sacrifice, tumors were dissected, weighed and snap-frozen in liquid nitrogen for RNA or protein extraction and immunofluorescence analysis (embedded in OCT from Tissue-Tek). Tumors for picrosirius red staining were fixed in formalin.

For assay [3], the system named is M238R cells. Kind of assay: Viability assay (crystal violet staining of attached cells), BRAFi-resistant cells. It counts as cell-based, human. The conditions noted are these: 3 days. How it is done:
FIG. 1. Nintedanib sensitizes melanoma cells to BRAFi/MEKi therapy and prevents BRAFi/MEKi-driven ECM remodeling. (A) BRAFi-resistant M238R cells were treated with vehicle (Ctrl), Nintedanib (2 μM), Vemurafenib and Trametinib (BRAFi/MEKi, 5 μM) or Vemurafenib/Trametinib (5 μM) plus Nintedanib (2 μM) for 3 days. Cell viability was assessed by crystal violet staining of attached cells. (B) BRAFi-sensitive parental M238P cells were treated with vehicle (Ctrl), Nintedanib (2 μM) Vemurafenib and Trametinib (BRAFi/MEKi, 1 μM) or Vemurafenib/Trametinib (1 μM) plus Nintedanib (2 μM) for 3 days. Cell viability was assessed by crystal violet staining of attached cells. Paired Student t-test has been used for statistical analysis. ****P≤0.0001. Data is represented as mean ±SE from a triplicate representative of at least 3 independent experiments.
The isogenic pair of Vemurafenib-sensitive and -resistant human BRAF-mutated melanoma cells M238 was provided by R. Lo (Nazarian et al., 2010). YUMM1.7 mouse melanoma cells were a kind gift from M. Bosenberg (Meeth et al., 2016). […]
After the indicated treatments, cells were stained with 0.04% crystal violet, 20% ethanol in PBS for 30 min. […] The crystal violet dye is solubilized by 10% acetic acid in PBS and measured by absorbance at 595 nm.

A further assay relates to YUMM 1.7 tumors. Kind of assay: ECM remodeling in YUMM1.7 tumors (picrosirius red collagen staining, qPCR of ECM, myofibroblast and pro-fibrotic markers). It is filed as in vivo, mouse. The note with it: co-administration of Nintedanib with MAPKi; data not shown. How it is done:
as §2, with “Heatmaps describing gene expression fold changes were prepared using MeV software. cDNAs from tumors were prepared from 100 ng of RNA using Fluidigm Reverse Transcription Master Mix (Fluidigm PN 100-647297).” left out, “[…])” for “DELTAgene™ Assay kits)”, “ArrayTM” for “Array™”, “software. Collagen in paraffin-embedded tumors was stained with picrosirius red using standard protocols as described (Girard et al., 2020). Tumor sections were analyzed by polarized light microscopy. Images were acquired under polarized illumination using a light transmission microscope (Zeiss PALM, at 10× magnification). […]” for “software.”

The next assay concerns M238P melanoma cells. Briefly: Real-time quantitative PCR gene expression in BRAFi-sensitive cells. It is filed as cell-based, human. The note with it: data not shown. Here is the method:
as §1, §2

Experimental for M238P cells: Melanoma cells were cultured in Dulbecco's modified Eagle medium (DMEM) supplemented with 7% FBS (Hyclone) and 1% penicillin/streptomycin. Resistant cells were continuously exposed to 1 μM of Vemurafenib. […] BRAFi (PLX4032, Vemurafenib), MEKi (GSK1120212, Trametinib) and Nintedanib (BIBF1120) were from Selleckem.

For the compound `COC(=O)c1ccc2c(c1)NC(=O)/C2=C(\Nc1ccc(N(C)C(=O)CN2CCN(C)CC2)cc1)c1ccccc1` [Nintedanib], the “cell survival (viability)” value in the assay with M238P cells (BRAFi-sensitive M238P cells, Nintedanib alone (2 μM)) is given as “no effect”. Also, in the assay on M238P cells (M238P cells, Nintedanib 2 μM plus Vemurafenib/Trametinib 1 μM), the “effect on the inhibitory effect of BRAFi plus MEKi on cell viability” value was “potentiated significantly the inhibitory effect”. In addition, the “ECM and fibrotic-like signature” value with M238R cells [1] (Nintedanib at two different doses) is recorded as “reverted”. In addition, the PDL1 expression entry in the assay with M238R cells [1] is reported as “reduced”. For the same compound, the “effect on MAPK-targeted therapy efficacy and tumor relapse” value in assay [2] (BRAFi/MEKi-treated YUMM1.7 melanoma, n=3, Nintedanib 50 mg/kg or Pirfenidone 100 mg/kg added to Vemurafenib 30 mg/kg + Trametinib 0.3 mg/kg) is “enhances MAPK-targeted therapy efficacy and prevents tumor relapse”. The anti-melanoma effect result in assay [2] (YUMM1.7 s.c. in C57BL/6 mice, Nintedanib 50 mg/kg alone, oral gavage three times per week) was “did not display any anti-melanoma effect”. Besides, in assay [2] (YUMM1.7 s.c. in C57BL/6 mice, oral gavage three times per week), the tumor growth entry was “slightly slowing down tumor growth but not triggering tumor volume decrease”. Besides, the “cell survival (viability)” value with M238R cells [3] (BRAFi-resistant M238R cells, Nintedanib alone (2 μM)) is “no effect”. For the same compound, the “sensitivity to BRAF and MEK co-inhibition (cell viability)” value in the assay with M238R cells [3] (M238R cells, Nintedanib 2 μM plus Vemurafenib/Trametinib 5 μM) was “restored sensitivity”. In the assay on YUMM 1.7 tumors, the “MAPKi-induced ECM remodeling responses in tumors” value was “suppressed”. Also, the “BRAFi-induced ECM-related signature and myofibroblast markers such as ACTA2, MYL9 and LOXL2” value with M238P melanoma cells is “strongly attenuated”. In the assay with M238P melanoma cells (under BRAFi), the “differentiation marker MITF expression” value is reported as “prevented the downregulation”; the “gene expression of phenotypic markers such as PDL1 and NGFR” value is “reduced”.
